target: T1, human GnRH receptor (Homo sapiens, UniProt P30968); test: IP-One HTRF assay with buserelin (at EC80) stimulation; assay type: cell-based; details: CHO cells stably expressing human GnRH receptor, read-out: Potency in IP-One HTRF assay, given as IC50
T1 sequence (P30968 1-328): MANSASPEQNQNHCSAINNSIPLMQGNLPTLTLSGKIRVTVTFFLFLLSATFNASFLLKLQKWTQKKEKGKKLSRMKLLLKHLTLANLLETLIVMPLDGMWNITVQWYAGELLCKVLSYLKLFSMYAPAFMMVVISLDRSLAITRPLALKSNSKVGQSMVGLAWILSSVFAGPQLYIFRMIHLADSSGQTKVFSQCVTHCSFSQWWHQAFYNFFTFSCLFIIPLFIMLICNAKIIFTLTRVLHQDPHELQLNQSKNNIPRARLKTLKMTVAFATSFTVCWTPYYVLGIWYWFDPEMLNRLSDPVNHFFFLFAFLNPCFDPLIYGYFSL
Description: 2.3. IP-One HTRF® Assay By using homogenous time-resolved fluorescence resonance energy transfer (HTRF), the generation of one component of the GnRH—R signalling cascade can be measured. After stimulation of CHO cells stably expressing human GnRH receptor (established by Prof. Thomas Gudermann, currently University of Marburg, Germany; supplied as frozen cell aliquots by Cell Culture Services, Hamburg, Germany) with the EC80 of the GnRH agonist buserelin, Gq protein-coupled receptor signalling cascade is activated resulting in PLC-dependent cleavage of PIP2 to Inositol-1,4,5-triphosphate (IP3) and Diacylglycerol. The second messenger IP3 is degraded intracellularly to myo-inositol. Inhibition of the final degradation step from Inositol-1-phosphate (IP1) to myo-inositol by addition of lithium chloride leads to accumulation of IP1 in the cells. In cell lysates, IP1 can be detected via an antibody-based HTRF detection technology, where IP1 can displace the FRET acceptor IP1-d2 from binding by Terbium-labelled anti-IP1 antibody as donor resulting in a signal decrease. Compounds were tested for their capability of inhibiting GnRH—R activation by buserelin. For all IP-One HTRF® assays reagents of Cisbio Bioassays (IP-One Tb Jumbo kit, #62IPAPEJ; Cisbio Bioassays, Bagnols sur Cèze Cedex, France) were used.
For the assay, frozen cell aliquots were thawed and a cell suspension (3.33×10^6 cells/mL) containing IP1-d2 (dilution 1:40) was prepared and incubated at 37° C. After 1 h 3 μl of the cell suspension were added to 50 nl of a 100-fold concentrated solution of the test compound in DMSO pre-dispensed in a well of a white low-volume 384-well microtiter plate (Greiner Bio-One, Frickenhausen, Germany). […] Plates were incubated for 1 h at 37° C. and 5% carbon dioxide before the cells were lysed by adding 3 μl Terbium-labelled anti-IP1 antibody (1:40) diluted in Conjugate & Lysis buffer as supplied with the kit. After an incubation for 1 h at 22° C. to enable complete cell lysis and antibody binding to free IP1 or IP1-d2, plates were measured in an HTRF reader, e.g. a RUBYstar, PHERAstar (both BMG Labtechnologies, Offenburg, Germany) or a Viewlux (PerkinElmer LAS, Rodgau-Jügesheim, Germany).
From the fluorescence emissions at 665 nm (FRET) and at 620 nm (background signal of Terbium-antibody), the ratio (emission at 665 nm divided by emission at 620 nm) was calculated and the data were normalized (reaction without test compound=0% inhibition; all other assay components except agonist=100% inhibition). On the same microtiter plate, compounds were tested at 10 different concentrations in the range of 20 μM to 1 nM (20 μM, 6.7 μM, 2.2 μM, 0.74 μM, 0.25 μM, 82 nM, 27 nM, 9.2 nM, 3.1 nM and 1 nM; dilution series prepared before the assay at the level of the 100-fold conc. stock solutions by serial 1:3 dilutions in 100% DMSO) in duplicate values for each concentration. By using an in-house software, the IC50 values were calculated by a 4 parameter fit.

SMILES | IC50 [nM]
O=C(NCC1CCCCC1)c1ccc2c(c1)C1(CCS(=O)(=O)CC1)C(C1CC1)N2S(=O)(=O)c1ccc(F)cc1 (single isomer, unassigned) [Example 36.1, N-(cyclohexylmethyl)-2-cyclopropyl-1-[(4-fluorophenyl)sulfonyl]-1,2,2′,3′,5′,6′-hexahydrospiro[indole-3,4′-thiopyran]-5-carboxamide 1′,1′-dioxide] | 107
O=C(NCC1CCCCC1)c1ccc2c(c1)C1(CCS(=O)(=O)CC1)C(C1CC1)N2S(=O)(=O)c1ccc(F)cc1 (single isomer, unassigned) [Example 36.2, N-(cyclohexylmethyl)-2-cyclopropyl-1-[(4-fluorophenyl)sulfonyl]-1,2,2′,3′,5′,6′-hexahydrospiro[indole-3,4′-thiopyran]-5-carboxamide 1′,1′-dioxide] | 3890
CN(C)S(=O)(=O)c1cccc(NC(=O)c2ccc3c(c2)C2(CCS(=O)(=O)CC2)C(C2CC2)N3S(=O)(=O)c2ccc(F)cc2)c1 (single isomer, unassigned) [Example 37.1, 2-cyclopropyl-N-[3-(N,N-dimethylsulfamoyl)phenyl]-1-[(4-fluorophenyl)sulfonyl]-1,2,2′,3′,5′,6′-hexahydrospiro[indole-3,4′-thiopyran]-5-carboxamide 1′,1′-dioxide] | 2130
CN(C)S(=O)(=O)c1cccc(NC(=O)c2ccc3c(c2)C2(CCS(=O)(=O)CC2)C(C2CC2)N3S(=O)(=O)c2ccc(F)cc2)c1 (single isomer, unassigned) [Example 37.2, 2-cyclopropyl-N-[3-(N,N-dimethylsulfamoyl)phenyl]-1-[(4-fluorophenyl)sulfonyl]-1,2,2′,3′,5′,6′-hexahydrospiro[indole-3,4′-thiopyran]-5-carboxamide 1′,1′-dioxide] | 44
O=C(NCC1CCCC1)c1ccc2c(c1)C1(CCS(=O)(=O)CC1)C(C1CC1)N2S(=O)(=O)c1ccc(F)cc1 (single isomer, unassigned) [Example 38.1, N-(cyclopentylmethyl)-2-cyclopropyl-1-[(4-fluorophenyl)sulfonyl]-1,2,2′,3′,5′,6′-hexahydrospiro[indole-3,4′-thiopyran]-5-carboxamide 1′,1′-dioxide] | 88
O=C(NCC1CCCC1)c1ccc2c(c1)C1(CCS(=O)(=O)CC1)C(C1CC1)N2S(=O)(=O)c1ccc(F)cc1 (single isomer, unassigned) [Example 38.2, N-(cyclopentylmethyl)-2-cyclopropyl-1-[(4-fluorophenyl)sulfonyl]-1,2,2′,3′,5′,6′-hexahydrospiro[indole-3,4′-thiopyran]-5-carboxamide 1′,1′-dioxide] | 6860
COc1cccc(S(=O)(=O)N2c3ccc(C(=O)NCc4ncccc4C(F)(F)F)cc3C3(CCS(=O)(=O)CC3)C2C2CC2)c1 (single isomer, unassigned) [Example 39.1, 2-cyclopropyl-1-[(3-methoxyphenyl)sulfonyl]-N-{[3-(trifluoromethyl)pyridin-2-yl]methyl}-1,2,2′,3′,5′,6′-hexahydrospiro[indole-3,4′-thiopyran]-5-carboxamide 1′,1′-dioxide] | 40
COc1cccc(S(=O)(=O)N2c3ccc(C(=O)NCc4ncccc4C(F)(F)F)cc3C3(CCS(=O)(=O)CC3)C2C2CC2)c1 (single isomer, unassigned) [Example 39.2, 2-cyclopropyl-1-[(3-methoxyphenyl)sulfonyl]-N-{[3-(trifluoromethyl)pyridin-2-yl]methyl}-1,2,2′,3′,5′,6′-hexahydrospiro[indole-3,4′-thiopyran]-5-carboxamide 1′,1′-dioxide] | 565
COc1cccc(S(=O)(=O)N2c3ccc(C(=O)NCc4ccccc4C(F)(F)F)cc3C3(CCS(=O)(=O)CC3)C2C2CC2)c1 (single isomer, unassigned) [Example 40.1, 2-cyclopropyl-1-[(3-methoxyphenyl)sulfonyl]-N-[2-(trifluoromethyl)benzyl]-1,2,2′,3′,5′,6′-hexahydrospiro[indole-3,4′-thiopyran]-5-carboxamide 1′,1′-dioxide] | 19
COc1cccc(S(=O)(=O)N2c3ccc(C(=O)NCc4ccccc4C(F)(F)F)cc3C3(CCS(=O)(=O)CC3)C2C2CC2)c1 (single isomer, unassigned) [Example 40.2, 2-cyclopropyl-1-[(3-methoxyphenyl)sulfonyl]-N-[2-(trifluoromethyl)benzyl]-1,2,2′,3′,5′,6′-hexahydrospiro[indole-3,4′-thiopyran]-5-carboxamide 1′,1′-dioxide] | 632
COc1cccc(S(=O)(=O)N2c3ccc(C(=O)NCc4ncccc4Cl)cc3C3(CCS(=O)(=O)CC3)C2C2CC2)c1 (single isomer, unassigned) [Example 41.1, N-[(3-chloropyridin-2-yl)methyl]-2-cyclopropyl-1-[(3-methoxyphenyl)sulfonyl]-1,2,2′,3′,5′,6′-hexahydrospiro[indole-3,4′-thiopyran]-5-carboxamide 1′,1′-dioxide] | 102
COc1cccc(S(=O)(=O)N2c3ccc(C(=O)NCc4ncccc4Cl)cc3C3(CCS(=O)(=O)CC3)C2C2CC2)c1 (single isomer, unassigned) [Example 41.2, N-[(3-chloropyridin-2-yl)methyl]-2-cyclopropyl-1-[(3-methoxyphenyl)sulfonyl]-1,2,2′,3′,5′,6′-hexahydrospiro[indole-3,4′-thiopyran]-5-carboxamide 1′,1′-dioxide] | 428
COc1cccc(S(=O)(=O)N2c3ccc(C(=O)Nc4cccc(S(N)(=O)=O)c4)cc3C3(CCS(=O)(=O)CC3)C2C2CC2)c1 (single isomer, unassigned) [Example 42.1, 2-cyclopropyl-1-[(3-methoxyphenyl)sulfonyl]-N-(3-sulfamoylphenyl)-1,2,2′,3′,5′,6′-hexahydrospiro[indole-3,4′-thiopyran]-5-carboxamide 1′,1′-dioxide] | 437
COc1cccc(S(=O)(=O)N2c3ccc(C(=O)Nc4cccc(S(N)(=O)=O)c4)cc3C3(CCS(=O)(=O)CC3)C2C2CC2)c1 (single isomer, unassigned) [Example 42.2, 2-cyclopropyl-1-[(3-methoxyphenyl)sulfonyl]-N-(3-sulfamoylphenyl)-1,2,2′,3′,5′,6′-hexahydrospiro[indole-3,4′-thiopyran]-5-carboxamide 1′,1′-dioxide] | 99
COc1cccc(S(=O)(=O)N2c3ccc(C(=O)Nc4cccc(S(=O)(=O)N(C)C)c4)cc3C3(CCS(=O)(=O)CC3)C2C2CC2)c1 (single isomer, unassigned) [Example 43.1, 2-cyclopropyl-N-[3-(N,N-dimethylsulfamoyl)phenyl]-1-[(3-methoxyphenyl)sulfonyl]-1,2,2′,3′,5′,6′-hexahydrospiro[indole-3,4′-thiopyran]-5-carboxamide 1′,1′-dioxide] | 344
COc1cccc(S(=O)(=O)N2c3ccc(C(=O)Nc4cccc(S(=O)(=O)N(C)C)c4)cc3C3(CCS(=O)(=O)CC3)C2C2CC2)c1 (single isomer, unassigned) [Example 43.2, 2-cyclopropyl-N-[3-(N,N-dimethylsulfamoyl)phenyl]-1-[(3-methoxyphenyl)sulfonyl]-1,2,2′,3′,5′,6′-hexahydrospiro[indole-3,4′-thiopyran]-5-carboxamide 1′,1′-dioxide] | 36
COc1cccc(S(=O)(=O)N2c3ccc(C(=O)NCc4ccccc4Cl)cc3C3(CCS(=O)(=O)CC3)C2C2CC2)c1 (single isomer, unassigned) [Example 44.1, N-(2-chlorobenzyl)-2-cyclopropyl-1-[(3-methoxyphenyl)sulfonyl]-1,2,2′,3′,5′,6′-hexahydrospiro[indole-3,4′-thiopyran]-5-carboxamide 1′,1′-dioxide] | 25

Reference: patent US20140357655A1, “SPIROINDOLINE DERIVATIVES AS GONADOTROPIN- RELEASING HORMONE RECEPTOR ANTAGONISTS” (Bayer Intellectual Property GmbH, priority 2012, published 2014)
